Laboratory results reported in ChEMBL document CHEMBL1201862, “PubChem BioAssay data set” (2004).
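Exposure lasted 48 hours, with cells grown in 96-well plates and compounds tested at five concentrations. Abbreviation: GI50, concentration required for 50% inhibition of growth.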 The source made the active and inactive calls. Cut-off read from the data, not from the text of the source: active = GI50 up to about 1.1 µM and inactive = higher.

How the values were obtained:
Assay in all cases: growth of human tumour cells (NCI), 48 h
ACHN = system: ACHN
Hs-578T = system: Hs-578T
HL-60 = system: HL-60
KM12 = system: KM12
HCC 2998 = system: HCC 2998
HOP-62 = system: HOP-62
MCF7 = system: MCF7
NCI-H23 = system: NCI-H23
A549 = system: A549
SF-268 = system: SF-268
SK-MEL-2 = system: SK-MEL-2
OVCAR-8 = system: OVCAR-8
UO-31 = system: UO-31
CAKI-1 = system: CAKI-1
SF-539 = system: SF-539
MDA-MB-435 = system: MDA-MB-435
A498 = system: A498
U-251 = system: U-251
RXF 393 = system: RXF 393
SK-MEL-28 = system: SK-MEL-28
M14 = system: M14
SK-OV-3 = system: SK-OV-3
NCI/ADR-RES = system: NCI/ADR-RES
SK-MEL-5 = system: SK-MEL-5
OVCAR-3 = system: OVCAR-3
MDA-MB-231 = system: MDA-MB-231
NCI-H460 = system: NCI-H460
NCI-H226 = system: NCI-H226
IGROV-1 = system: IGROV-1
COLO 205 = system: COLO 205
LOX IMVI = system: LOX IMVI
RPMI-8226 = system: RPMI-8226
OVCAR-5 = system: OVCAR-5
TK-10 = system: TK-10
OVCAR-4 = system: OVCAR-4
SNB-19 = system: SNB-19
SW-620 = system: SW-620
UACC-62 = system: UACC-62
HT-29 = system: HT-29
HCT-116 = system: HCT-116
SF-295 = system: SF-295
NCI-H522 = system: NCI-H522
K562 = system: K562
HCT-15 = system: HCT-15
DU-145 = system: DU-145
MOLT-4 = system: MOLT-4
SR = system: SR
HOP-92 = system: HOP-92
UACC-257 = system: UACC-257
EKVX = system: EKVX
786-0 = system: 786-0
SN12C = system: SN12C
BT-549 = system: BT-549
CCRF-CEM = system: CCRF-CEM
PC-3 = system: PC-3
MDA-N = system: MDA-N
SNB-75 = system: SNB-75

CN(C)c1ccc(/C=C/c2cc(-c3ccccc3)[n+](C)n2-c2ccccc2)cc1
GI50 (ACHN): 1.44 µM (inactive)
GI50 (Hs-578T): 0.0332 µM (active)
GI50 (HL-60): 0.0218 µM (active)
GI50 (KM12): 0.0635 µM (active)
GI50 (HCC 2998): 1.64 µM (inactive)
GI50 (HOP-62): 0.54 µM (active)
GI50 (MCF7): 0.157 µM (active)
GI50 (NCI-H23): 0.0349 µM (active)
GI50 (A549): 0.411 µM (active)
GI50 (SF-268): 0.431 µM (active)
GI50 (SK-MEL-2): 0.224 µM (active)
GI50 (OVCAR-8): 0.207 µM (active)
GI50 (UO-31): 1.86 µM (inactive)
GI50 (CAKI-1): 1.91 µM (inactive)
GI50 (SF-539): 1.49 µM (inactive)
GI50 (MDA-MB-435): 0.158 µM (active)
GI50 (A498): 0.774 µM (active)
GI50 (U-251): 0.0573 µM (active)
GI50 (RXF 393): 0.281 µM (active)
GI50 (SK-MEL-28): 0.597 µM (active)
GI50 (M14): 0.617 µM (active)
GI50 (SK-OV-3): 0.401 µM (active)
GI50 (NCI/ADR-RES): 4.5 µM (inactive)
GI50 (SK-MEL-5): 0.0341 µM (active)
GI50 (OVCAR-3): 0.234 µM (active)
GI50 (MDA-MB-231): 0.242 µM (active)
GI50 (NCI-H460): 0.122 µM (active)
GI50 (NCI-H226): 0.138 µM (active)
GI50 (IGROV-1): 0.154 µM (active)
GI50 (COLO 205): 0.094 µM (active)
GI50 (LOX IMVI): 0.299 µM (active)
GI50 (RPMI-8226): 0.0221 µM (active)
GI50 (OVCAR-5): 1.6 µM (inactive)
GI50 (TK-10): 1.7 µM (inactive)
GI50 (OVCAR-4): 6.41 µM (inactive)
GI50 (SNB-19): 0.0865 µM (active)
GI50 (SW-620): 0.299 µM (active)
GI50 (UACC-62): 0.481 µM (active)
GI50 (HT-29): 0.0995 µM (active)
GI50 (HCT-116): 0.125 µM (active)
GI50 (SF-295): 0.614 µM (active)
GI50 (NCI-H522): < 0.01 µM (active)
GI50 (K562): 0.0531 µM (active)
GI50 (HCT-15): 3.61 µM
GI50 (DU-145): 0.215 µM (active)
GI50 (MOLT-4): 0.144 µM (active)
GI50 (SR): 0.103 µM (active)
GI50 (HOP-92): 0.467 µM (active)
GI50 (UACC-257): 0.122 µM (active)
GI50 (EKVX): 0.138 µM (active)
GI50 (786-0): 0.43 µM (active)
GI50 (SN12C): 0.293 µM (active)
GI50 (BT-549): 0.0571 µM (active)
GI50 (CCRF-CEM): 0.035 µM (active)
GI50 (PC-3): 0.158 µM (active)
GI50 (MDA-N): 0.114 µM (active)

OCC1OC(Oc2cc(O)cc(/C=C\c3ccc(O)cc3)c2)C(O)C(O)C1O (stereo not drawn)
GI50 (ACHN): > 100 µM (inactive)
GI50 (Hs-578T): > 100 µM (inactive)
GI50 (HL-60): > 100 µM (inactive)
GI50 (KM12): > 100 µM (inactive)
GI50 (HOP-62): > 100 µM (inactive)
GI50 (MCF7): > 100 µM (inactive)
GI50 (A549): > 100 µM (inactive)
GI50 (SK-MEL-2): > 100 µM (inactive)
GI50 (SNB-75): > 100 µM (inactive)
GI50 (OVCAR-8): > 100 µM (inactive)
GI50 (UO-31): > 100 µM (inactive)
GI50 (CAKI-1): > 100 µM (inactive)
GI50 (SF-539): > 100 µM (inactive)
GI50 (MDA-MB-435): > 100 µM (inactive)
GI50 (A498): > 100 µM (inactive)
GI50 (U-251): > 100 µM (inactive)
GI50 (RXF 393): > 100 µM (inactive)
GI50 (SK-MEL-28): > 100 µM (inactive)
GI50 (SK-OV-3): > 100 µM (inactive)
GI50 (NCI/ADR-RES): > 100 µM (inactive)
GI50 (SK-MEL-5): > 100 µM (inactive)
GI50 (OVCAR-3): > 100 µM (inactive)
GI50 (MDA-MB-231): > 100 µM (inactive)
GI50 (NCI-H460): > 100 µM (inactive)
GI50 (NCI-H226): > 100 µM (inactive)
GI50 (IGROV-1): > 100 µM (inactive)
GI50 (LOX IMVI): > 100 µM (inactive)
GI50 (RPMI-8226): > 100 µM (inactive)
GI50 (OVCAR-5): > 100 µM (inactive)
GI50 (TK-10): > 100 µM (inactive)
GI50 (OVCAR-4): > 100 µM (inactive)
GI50 (SNB-19): > 100 µM (inactive)
GI50 (SW-620): > 100 µM (inactive)
GI50 (UACC-62): > 100 µM (inactive)
GI50 (HT-29): > 100 µM (inactive)
GI50 (HCT-116): > 100 µM (inactive)
GI50 (SF-295): > 100 µM (inactive)
GI50 (NCI-H522): > 100 µM (inactive)
GI50 (K562): > 100 µM (inactive)
GI50 (HCT-15): > 100 µM
GI50 (DU-145): > 100 µM (inactive)
GI50 (MOLT-4): > 100 µM (inactive)
GI50 (SR): > 100 µM (inactive)
GI50 (HOP-92): > 100 µM (inactive)
GI50 (UACC-257): > 100 µM (inactive)
GI50 (EKVX): > 100 µM (inactive)
GI50 (786-0): > 100 µM (inactive)
GI50 (SN12C): > 100 µM (inactive)
GI50 (BT-549): > 100 µM (inactive)
GI50 (CCRF-CEM): > 100 µM (inactive)
GI50 (PC-3): > 100 µM (inactive)
GI50 (MDA-N): > 100 µM (inactive)
